Like-named read-outs stand apart in the source and are kept apart here.
How the values were obtained:
[1] = tested on: Lung cancer A549; assay: MTT cytotoxicity, lung cancer A549; conditions: read-out: IC50 of anti-lung cancer A549, method of test example 2
Experimental: Cell morphologies were observed after being cultivated for 24 hours.

[2] = tested on: normal mice; assay: in vivo; conditions: method of test example 1; for LD50: Table 1, formula I compounds; for LD50 vALUE: Table 2, formula II compounds
Experimental: Kunming mice with 4˜6 weeks old and 18 g˜22 g by weight were taken, 50% males and 50% females. […] The condition of mortality and toxicity were observed after administration. Totally observing for 14 days, LD50 value was calculated using Bliss method according to the mortality.

[3] = tested on: gastric cancer MGC803; assay: MTT cytotoxicity, gastric cancer MGC803; format: cell-based; conditions: n = 6
[4] = Solubility in water; conditions: compound of the example (salt form) in water
[5] = tested on: Testis cell ST; assay: MTT cytotoxicity, testis cell ST; format: cell-based; conditions: n = 6
[6] = tested on: Lung cancer H292; assay: MTT cytotoxicity, lung cancer H292; format: cell-based; conditions: Lung cancer H292, MTT, n = 6; read-out: cytotoxicity IC50
[7] = tested on: colon cancer SW480; assay: MTT cytotoxicity, colon cancer SW480; format: cell-based; conditions: colon cancer SW480, MTT, n = 6; read-out: cytotoxicity IC50
[8] = tested on: Esophagus cancer ECA109; assay: MTT cytotoxicity, esophagus cancer ECA109; format: cell-based; conditions: n = 6

CN(CO)CCCCC1C(=O)[O][Pt]([NH2])([NH]C2CCC2)[O]C1=O (stereo not shown) [Compound 52]
IC50 ([1]; Table 1, formula I compounds): 41 µM | LD50 [2]: 0.687 mmol/kg

CCN(CC)CCCCC1C(=O)[O][Pt]2([NH]CC(CO)(CO)C[NH]2)[O]C1=O.O=P(O)(O)O [Compound 21, 2-(4-diethylaminobutyl)-malonate•cis-1,3-(2,2-hydroxymethyl)-propanediamine platinum (II) phosphate]
IC50 [3]: 5 µM | solubility [4]: more than 300 mg/ml | IC50 [5]: 13 µM | IC50 [6]: 12 µM

CCCCN(C)CCCCC1C(=O)[O][Pt]2([NH][C@H]3CCCC[C@H]3[NH]2)[O]C1=O (stereo partly shown) [Compound 60]
IC50 ([1]; Table 1, formula I compounds): 9 µM | LD50 [2]: 0.875 mmol/kg

CN(CCCCC1C(=O)[O][Pt]2([NH]C3CCCCC3[NH]2)[O]C1=O)Cc1ccc(Cl)cc1 (stereo not shown) [Compound 58]
IC50 ([1]; Table 1, formula I compounds): 37 µM | LD50 [2]: 0.607 mmol/kg

CC1CC(C)[NH][Pt]2([NH]1)[O]C(=O)C(CCCCN(C)C)C(=O)[O]2 (stereo not shown) [Compound 45]
IC50 ([1]; Table 1, formula I compounds): 31 µM | LD50 [2]: 0.834 mmol/kg

CCN(CC)CCCCC1C(=O)[O][Pt]([NH]C2CCCC2)([NH]C2CCCC2)[O]C1=O [Compound 55]
IC50 ([1]; Table 1, formula I compounds): 61 µM | LD50 [2]: 0.852 mmol/kg

O=C1[O][Pt]2([NH]C3CCCCC3[NH]2)[O]C(=O)C1CCCCN(C1CCCC1)C1CCCC1 (stereo not shown) [Compound 42]
IC50 ([1]; Table 1, formula I compounds): 5 µM | LD50 [2]: 0.826 mmol/kg

CN(C)CCCCC1C(=O)[O][Pt][O]C1=O.NCC1CCCN1 [Compound 48]
IC50 ([1]; Table 1, formula I compounds): 31 µM | LD50 [2]: 0.831 mmol/kg

CCN(CC)CCCCC1C(=O)[O][Pt][O]C1=O.NC1CC(O)C(O)CC1N [Compound 40]
IC50 ([1]; Table 1, formula I compounds): 21 µM | LD50 [2]: 0.683 mmol/kg

CN(C)CCCCC1C(=O)[O][Pt][O]C1=O.NC1CCC(N)C1 [Compound 44]
IC50 ([1]; Table 1, formula I compounds): 24 µM | LD50 [2]: 0.857 mmol/kg

CN(CCCCC1C(=O)[O][Pt]([NH2])([NH2])[O]C1=O)Cc1ccc(Cl)cc1F [Compound 59]
IC50 ([1]; Table 1, formula I compounds): 68 µM | LD50 [2]: 0.598 mmol/kg

NC1CCCCC1N.O=C1[O][Pt][O]C(=O)C1CCC(Cl)CN1CCCCC1 (stereo not shown) [Compound 36]
IC50 ([1]; Table 1, formula I compounds): 7 µM | LD50 [2]: 0.713 mmol/kg

2-(4-diethylaminobutyl)-malonate•cis-(1, 2-trans-cyclopropanediamine) platinum (II) phosphate [Compound 16]
IC50 [3]: 4 µM | IC50 [7]: 13 µM | IC50 [5]: 10 µM | IC50 [6]: 5 µM

CN(CCCCC1C(=O)[O][Pt]2([NH]C3CCCCC3[NH]2)[O]C1=O)Cc1ccccc1 (stereo not shown) [Compound 57]
LD50 [2]: 0.613 mmol/kg

CCN(CC)CCCCC1C(=O)[O][Pt]2([NH]CCCC[NH]2)[O]C1=O.O=P(O)(O)O [Compound 19, 2-(4-diethylaminobutyl)-malonate•cis-(1,4-butanediamine) platinum (II) phosphate]
IC50 [3]: 5 µM | IC50 [7]: 23 µM | solubility [4]: more than 300 mg/ml | IC50 [5]: 13 µM | IC50 [6]: 6 µM

CCN(CC)CCCCC1C(=O)[O][Pt]2([NH]CCC[NH]2)[O]C1=O.O=P(O)(O)O [Compound 18, 2-(4-diethylaminobutyl)-malonate•cis-(1,3-propanediamine) platinum (II) phosphate]
IC50 [3]: 2 µM | IC50 [7]: 14 µM | solubility [4]: more than 300 mg/ml | IC50 [5]: 22 µM | IC50 [6]: 8 µM

2-(2-diethylaminobutyl)-malonate•cis-1,2-(1,2-dihydroxymethyl)-ethylenediamine platinum (II) phosphate [Compound 20]
IC50 [3]: 4 µM | IC50 [8]: 17 µM | IC50 [5]: 11 µM | IC50 [6]: 5 µM

O=C1[O][Pt]([NH]C2CCCC2)([NH]C2CCCC2)[O]C(=O)C1CCCCN(C1CC1)C1CC1 [Compound 56]
IC50 ([1]; Table 1, formula I compounds): 57 µM | LD50 [2]: 0.816 mmol/kg

CCCC[N+](C)(C)CCCCC1C(=O)[O][Pt]2([NH][C@H]3CC(OC)C(OC)C[C@H]3[NH]2)[O]C1=O (stereo partly shown) [Compound 65]
IC50 ([1]; Table 2, formula II compounds): 16 µM | LD50 vALUE [2]: 0.615 mmol/kg

CCN(CC)CCCCC1C(=O)[O][Pt]2([NH]CC[NH]2)[O]C1=O.Cc1ccc(S(=O)(=O)O)cc1 [Compound 17, 2-(4-diethylaminobutyl)-malonate•cis-(1,2-ethylenediamine) platinum (II) tosilate]
IC50 [3]: 5 µM | IC50 [7]: 7 µM | solubility [4]: more than 300 mg/ml | IC50 [5]: 16 µM | IC50 [6]: 4 µM

CN(C)CCCCC1C(=O)[O][Pt][O]C1=O.NCC1CN1 [Compound 46]
IC50 ([1]; Table 1, formula I compounds): 27 µM | LD50 [2]: 0.823 mmol/kg

CC1CCN(CCCCC2C(=O)[O][Pt]3([NH]C4CC=CCC4[NH]3)[O]C2=O)C1 (stereo not shown) [Compound 33]
IC50 ([1]; Table 1, formula I compounds): 7 µM | LD50 [2]: 0.826 mmol/kg

O=C1[O][Pt]2([NH]C3CCCCC3[NH]2)[O]C(=O)C1CCCCN1CCOCC1 (stereo not shown) [Compound 51]
IC50 ([1]; Table 1, formula I compounds): 26 µM | LD50 [2]: 0.654 mmol/kg

CN(C)CCCCC1C(=O)[O][Pt][O]C1=O.NCC1CCCCN1 [Compound 49]
IC50 ([1]; Table 1, formula I compounds): 45 µM | LD50 [2]: 0.817 mmol/kg

CCCN.CCN(CC)CCCCC1C(=O)[O][Pt][O]C1=O.NC1CC=NC1 [Compound 63]
IC50 ([1]; Table 1, formula I compounds): 25 µM | LD50 [2]: 0.804 mmol/kg

2-(4-diethylaminobutyl)-malonate•cis-ammonia•cyclopentylamine platinum (II) acetate [Compound 26]
IC50 [3]: 1 µM | IC50 [8]: 91 µM | IC50 [5]: 11 µM | IC50 [6]: 4 µM

CN(CCCCC1C(=O)[O][Pt]2([NH]C3CCCCC3[NH]2)[O]C1=O)C(C)(C)C (stereo not shown) [Compound 34]
LD50 [2]: 0.905 mmol/kg

COC1CC(C)N(CCCCC2C(=O)[O][Pt][O]C2=O)C1C.NC1CCCCC1N (stereo not shown) [Compound 39]
IC50 ([1]; Table 1, formula I compounds): 6 µM | LD50 [2]: 0.711 mmol/kg

CCN(C)CC(CCC1C(=O)[O][Pt][O]C1=O)OC.N.N (stereo not shown) [Compound 30]
IC50 ([1]; Table 1, formula I compounds): 12 µM | LD50 [2]: 0.759 mmol/kg

CC[N+](CC)(CC)CCCCC1C(=O)[O][Pt]([NH2])([NH2])[O]C1=O [Compound 66]
IC50 ([1]; Table 2, formula II compounds): 20 µM | LD50 vALUE [2]: 0.677 mmol/kg

CCN(CC)CCCCC1C(=O)[O][Pt]2([NH]CC3(CCOCC3)C[NH]2)[O]C1=O.O=P(O)(O)O [Compound 24, 2-(4-diethylaminobutyl)-malonate•cis-1,3-(2,2-(4-oxacyclohexyl))-propanediamine•platinum (II) phosphate]
IC50 [3]: 3 µM | IC50 [8]: 52 µM | solubility [4]: more than 300 mg/ml | IC50 [5]: 6 µM | IC50 [6]: 3 µM

2-(4-diethylaminobutyl)-malonate•cis-dicyclopentylamine platinum (II) acetate [Compound 25]
IC50 [3]: 3 µM | IC50 [8]: 29 µM | IC50 [5]: 7 µM | IC50 [6]: 6 µM

CC1CCCN1CCCCC1C(=O)[O][Pt]2([NH]C3CCCCC3[NH]2)[O]C1=O (stereo not shown) [Compound 38]
IC50 ([1]; Table 1, formula I compounds): 6 µM | LD50 [2]: 0.818 mmol/kg

CN(C)CCCCC1C(=O)[O][Pt][O]C1=O.NCC1CCN1 [Compound 47]
IC50 ([1]; Table 1, formula I compounds): 23 µM | LD50 [2]: 0.815 mmol/kg

2-(4-diethylaminobutyl)-malonate•cis-(2-aminomethyl-cyclopentylamine) platinum (II) acetate [Compound 27]
IC50 [3]: 5 µM | IC50 [8]: 54 µM | IC50 [5]: 13 µM | IC50 [6]: 4 µM

CCCC[NH][Pt]1([NH]CCCC)[O]C(=O)C(CCCC[N+](CC)(CC)CC)C(=O)[O]1 [Compound 67]
IC50 ([1]; Table 2, formula II compounds): 27 µM | LD50 vALUE [2]: 0.802 mmol/kg

C[N+](C)(C)CCCCC1C(=O)[O][Pt][O]C1=O.Cc1ccc(S(=O)(=O)[O-])cc1.N[C@@H]1CCCC[C@H]1N [Compound 29, 2-(4-trimethylaminobutyl)-malonate•cis-(1,2-trans-cyclohexanediamine) platinum(II) tosilate]
IC50 [3]: 2 µM | IC50 [8]: 25 µM | IC50 [5]: 8 µM | IC50 [6]: 7 µM

CC1CCN(CCCCC2C(=O)[O][Pt]3([NH]C4CCCCC4[NH]3)[O]C2=O)CC1 (stereo not shown) [Compound 37]
IC50 ([1]; Table 1, formula I compounds): 9 µM | LD50 [2]: 0.825 mmol/kg

CN(CCCCC1C(=O)[O][Pt]2([NH]C3CCCCC3[NH]2)[O]C1=O)C1CCCC1 (stereo not shown) [Compound 43]
IC50 ([1]; Table 1, formula I compounds): 5 µM | LD50 [2]: 0.841 mmol/kg

CCN(C)CC(CCC1C(=O)[O][Pt][O]C1=O)OC.NC1CCCCC1N (stereo not shown) [Compound 31]
IC50 ([1]; Table 1, formula I compounds): 5 µM | LD50 [2]: 0.732 mmol/kg

CCN(CC)CCCCC1C(=O)[O][Pt]2([NH]C3CCC3[NH]2)[O]C1=O.O=C(O)CCC(=O)O (racemic) [Compound 15, 2-(4-diethylaminobutyl)-malonate•cis-(1,2-trans-cyclobutanediamine) platinum (II) succinate]
IC50 [3]: 3 µM | IC50 [7]: 18 µM | IC50 [6]: 10 µM

O=C1[O][Pt]2([NH]C3CCCCC3[NH]2)[O]C(=O)C1CCCCN1CC=CC1 (stereo not shown) [Compound 35]
IC50 ([1]; Table 1, formula I compounds): 4 µM | LD50 [2]: 0.762 mmol/kg

CC1CC(Cl)C(C)N1CCCCC1C(=O)[O][Pt]2([NH]C3CCCCC3[NH]2)[O]C1=O (stereo not shown) [Compound 41]
IC50 ([1]; Table 1, formula I compounds): 13 µM | LD50 [2]: 0.675 mmol/kg

CCN(C)CC(O)CCC1C(=O)[O][Pt][O]C1=O.NC1CCCCC1N (stereo not shown) [Compound 54]
LD50 [2]: 0.792 mmol/kg

Reference: patent US9725477B2, “Platinum compounds of malonic acid derivative having leaving group containing amino or alkylamino” (BEIJING FSWELCOME TECHNOLOGY DEVELOPMENT CO., LTD, priority 2012, dated 2017)
